{
  "source": "paper PMC5766581",
  "about": "“NF-κB inducing kinase is a therapeutic target for systemic lupus erythematosus” (Nature Communications, 2018)",
  "key": {"[1]": {"system": "p52 processing in human B cells", "experiment": "p52 processing western blot in B cells", "type": "cell-based", "method": "p52/p100 and β-actin were monitored by western blot as described previously. Briefly, p52 processing was detected after 6 or 18 h of stimulation. Mouse and human RPTEC cells were stimulated with recombinant mouse or human TWEAK (100 ng/mL, R&D Systems). Primary B cells were isolated by negative selection (Miltenyi) from either mouse spleen or human whole blood. Human primary B cells were stimulated with either rhCD40L (10 μg/mL) or rhBAFF (400 ng/mL) (R&D Systems). Mouse primary B cells were stimulated with either anti-CD40 (10 μg/mL, BD Biosciences) or rmBAFF (400 ng/mL). After 6 or 18 h, whole cell extracts were generated using RIPA buffer (with protease and phosphatase inhibition), and approximately 10 μg of total protein was monitored for p52/p100 and β-Actin by western blot. HeLa cells (ATCC) were stimulated for 8 h with anti-LTβR agonist antibody and cytoplasmic and nuclear extracts were generated using kits purchase from Thermo Scientific and approximately […] of each extract was monitored for p52/p100, phospho-RelA, RelA, or β-Actin, Histone H3, or Lamin B1 controls. Uncropped western blots, as required by journal policies, are provided in Supplementary Fig. 13 and 14."}, "CAMKK2": {"target": "T1, CAMKK2 (Homo sapiens, UniProt Q96RR4)", "T1 construct": "purchased Invitrogen / ThermoFisher SelectScreen", "experiment": "SelectScreen kinase panel", "type": "binding", "method": "(§1) The ability of NIK to catalyze the hydrolysis of adenosine-5′-triphosphate (ATP) was monitored using the Transcreener ADP (adenosine-5′-diphosphate) assay (Bell Brook Labs, Fitchburg, WI). Purified human NIK kinase domain (a.a. 340–694) (0.5 nM) or mouse NIK kinase domain (a.a. 329–675) (1 nM) derived from a baculovirus-infected insect cell expression system was incubated with test compounds for 0.5–2 h in 50 mM HEPES buffer (pH 7.2) containing 10 mM MgCl2, 2 mM dithiothreitol, 10 μM ATP, 0.01% Triton X-100, 0.1% gamma-globulins from bovine blood, 1% dimethylsulfoxide (DMSO), 7 μg/mL ADP antibody and 5 nM ADP-MR121 633 tracer. Reactions were quenched by the addition of 20 mM EDTA and 0.01% Brij 35. The tracer bound to the antibody was displaced by the ADP generated during the NIK reaction, which caused a decrease in fluorescence polarization that was measured by laser excitation at 633 nm with a Fluorescence Correlation Spectroscopy Plus reader (Evotec AG). Equilibrium dissociation constant (Ki) values for NIK inhibitors are calculated from plots of activity vs. inhibitor concentration using Morrison’s quadratic equation that accounts for the potential of tight binding, and by also applying the conversion factor that accounted for competitive inhibition and the concentration of substrate used in the assay relative to its Michaelis constant (Km). The Ki values with hPKD1 (PKCμ) were determined using the same assay conditions as for NIK. Ki measurements for hKHS1 and hLRRK2, as well as broad kinase selectivity profiling for SMI1, were carried out by Invitrogen using their SelectScreen kinase assay panel (ThermoFisher Scientific, Madison, WI). The vendor offered two types of kinase activity assays, a peptide phosphorylation assay (Z′-LYTE) and an ADP quantitation assay (Adapta), as well as one type of kinase ATP site competitive binding assay (LanthaScreen). See vendor web site for technology and protocol details for each specific kinase assay.\n(§2) The average % Inhibition of each kinase is reported (Supplementary Table 1)."}, "ALK2": {"target": "T2, ALK2 (Homo sapiens, UniProt Q04771)", "T2 construct": "purchased Invitrogen / ThermoFisher SelectScreen", "T2 sequence (Q04771 21-509)": "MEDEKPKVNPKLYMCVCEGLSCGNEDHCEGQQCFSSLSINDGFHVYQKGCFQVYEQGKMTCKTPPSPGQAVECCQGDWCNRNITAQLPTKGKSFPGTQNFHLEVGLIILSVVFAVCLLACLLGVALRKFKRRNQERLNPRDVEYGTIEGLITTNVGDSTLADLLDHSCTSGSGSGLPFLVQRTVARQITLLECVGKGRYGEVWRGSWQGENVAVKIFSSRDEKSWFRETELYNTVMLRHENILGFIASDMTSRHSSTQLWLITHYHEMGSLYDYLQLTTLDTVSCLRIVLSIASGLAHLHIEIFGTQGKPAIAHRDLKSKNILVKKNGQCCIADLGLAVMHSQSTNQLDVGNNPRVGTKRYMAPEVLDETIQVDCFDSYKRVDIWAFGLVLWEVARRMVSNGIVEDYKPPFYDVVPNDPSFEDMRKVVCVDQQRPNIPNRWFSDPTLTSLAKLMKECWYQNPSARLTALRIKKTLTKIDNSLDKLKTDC", "experiment": "SelectScreen kinase panel", "type": "binding", "method": "as §1, §2"}, "ASK1": {"target": "T3, ASK1 (Homo sapiens, UniProt Q99683)", "T3 construct": "purchased Invitrogen / ThermoFisher SelectScreen", "experiment": "SelectScreen kinase panel", "type": "binding", "method": "as §1, §2"}, "MKK6": {"target": "T4, MKK6 (Homo sapiens, UniProt P52564)", "T4 construct": "purchased Invitrogen / ThermoFisher SelectScreen", "T4 sequence (P52564 whole entry)": "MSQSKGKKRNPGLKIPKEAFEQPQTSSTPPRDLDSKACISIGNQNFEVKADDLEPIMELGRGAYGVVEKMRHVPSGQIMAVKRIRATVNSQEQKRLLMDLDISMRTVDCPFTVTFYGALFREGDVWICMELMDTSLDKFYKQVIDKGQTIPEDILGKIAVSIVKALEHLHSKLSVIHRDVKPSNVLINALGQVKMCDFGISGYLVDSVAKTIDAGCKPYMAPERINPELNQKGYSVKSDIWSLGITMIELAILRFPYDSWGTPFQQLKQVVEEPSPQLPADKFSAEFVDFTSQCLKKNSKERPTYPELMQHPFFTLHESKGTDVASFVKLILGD", "experiment": "SelectScreen kinase panel", "type": "binding", "method": "as §1, §2"}, "LIMK1": {"target": "T5, LIMK1 (Homo sapiens, UniProt P53667)", "T5 construct": "purchased Invitrogen / ThermoFisher SelectScreen", "T5 sequence (P53667 whole entry)": "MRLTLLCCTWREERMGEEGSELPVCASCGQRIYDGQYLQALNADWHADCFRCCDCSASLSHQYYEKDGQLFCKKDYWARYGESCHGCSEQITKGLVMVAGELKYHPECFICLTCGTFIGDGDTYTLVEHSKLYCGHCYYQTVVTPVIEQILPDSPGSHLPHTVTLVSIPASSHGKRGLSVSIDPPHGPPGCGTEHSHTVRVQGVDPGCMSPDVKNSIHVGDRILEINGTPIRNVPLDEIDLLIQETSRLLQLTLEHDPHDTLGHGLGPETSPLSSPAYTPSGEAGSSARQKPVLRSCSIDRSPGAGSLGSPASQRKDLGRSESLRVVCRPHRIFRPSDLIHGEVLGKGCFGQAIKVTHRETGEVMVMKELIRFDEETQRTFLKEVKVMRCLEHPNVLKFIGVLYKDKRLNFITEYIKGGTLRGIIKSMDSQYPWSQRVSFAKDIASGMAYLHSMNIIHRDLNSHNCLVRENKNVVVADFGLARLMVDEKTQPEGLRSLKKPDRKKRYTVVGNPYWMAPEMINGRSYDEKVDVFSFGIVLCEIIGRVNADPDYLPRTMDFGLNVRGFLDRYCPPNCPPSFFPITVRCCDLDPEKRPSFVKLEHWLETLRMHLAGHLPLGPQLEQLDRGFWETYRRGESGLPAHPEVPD", "experiment": "SelectScreen kinase panel", "type": "binding", "method": "as §1, §2"}, "EphA3": {"target": "T6, EphA3 (Homo sapiens, UniProt P29320)", "T6 construct": "purchased Invitrogen / ThermoFisher SelectScreen", "T6 sequence (P29320 21-983)": "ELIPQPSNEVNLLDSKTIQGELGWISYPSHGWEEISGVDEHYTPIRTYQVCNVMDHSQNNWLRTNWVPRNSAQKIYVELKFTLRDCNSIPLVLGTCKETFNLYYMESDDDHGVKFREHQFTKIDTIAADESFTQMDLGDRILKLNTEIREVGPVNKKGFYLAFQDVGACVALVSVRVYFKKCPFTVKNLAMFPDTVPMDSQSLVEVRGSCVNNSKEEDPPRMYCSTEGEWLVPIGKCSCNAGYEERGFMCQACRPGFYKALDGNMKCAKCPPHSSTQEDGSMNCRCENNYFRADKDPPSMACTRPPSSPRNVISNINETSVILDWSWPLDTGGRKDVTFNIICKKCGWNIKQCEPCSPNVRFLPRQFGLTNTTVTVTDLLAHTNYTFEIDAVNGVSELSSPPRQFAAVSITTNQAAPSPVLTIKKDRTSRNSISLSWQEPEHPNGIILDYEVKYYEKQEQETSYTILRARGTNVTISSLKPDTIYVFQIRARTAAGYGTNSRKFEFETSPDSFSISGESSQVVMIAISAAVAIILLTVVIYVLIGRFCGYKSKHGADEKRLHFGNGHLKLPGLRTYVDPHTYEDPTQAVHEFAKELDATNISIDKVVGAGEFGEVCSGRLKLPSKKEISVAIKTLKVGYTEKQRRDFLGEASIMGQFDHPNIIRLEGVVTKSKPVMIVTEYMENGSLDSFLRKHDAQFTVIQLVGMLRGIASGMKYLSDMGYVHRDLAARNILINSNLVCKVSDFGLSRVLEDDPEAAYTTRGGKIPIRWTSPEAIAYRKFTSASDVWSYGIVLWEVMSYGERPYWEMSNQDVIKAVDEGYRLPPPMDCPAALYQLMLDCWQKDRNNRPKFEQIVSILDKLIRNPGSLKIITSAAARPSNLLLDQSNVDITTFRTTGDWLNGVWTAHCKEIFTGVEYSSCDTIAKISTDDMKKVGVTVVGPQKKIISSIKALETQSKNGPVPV", "experiment": "SelectScreen kinase panel", "type": "binding", "method": "as §1, §2"}, "WEE1": {"target": "T7, WEE1 (Homo sapiens, UniProt P30291)", "T7 construct": "purchased Invitrogen / ThermoFisher SelectScreen", "experiment": "SelectScreen kinase panel", "type": "binding", "method": "as §1, §2"}, "JNK3": {"target": "T8, JNK3 (Homo sapiens, UniProt P53779)", "T8 construct": "purchased Invitrogen / ThermoFisher SelectScreen", "T8 sequence (P53779 whole entry)": "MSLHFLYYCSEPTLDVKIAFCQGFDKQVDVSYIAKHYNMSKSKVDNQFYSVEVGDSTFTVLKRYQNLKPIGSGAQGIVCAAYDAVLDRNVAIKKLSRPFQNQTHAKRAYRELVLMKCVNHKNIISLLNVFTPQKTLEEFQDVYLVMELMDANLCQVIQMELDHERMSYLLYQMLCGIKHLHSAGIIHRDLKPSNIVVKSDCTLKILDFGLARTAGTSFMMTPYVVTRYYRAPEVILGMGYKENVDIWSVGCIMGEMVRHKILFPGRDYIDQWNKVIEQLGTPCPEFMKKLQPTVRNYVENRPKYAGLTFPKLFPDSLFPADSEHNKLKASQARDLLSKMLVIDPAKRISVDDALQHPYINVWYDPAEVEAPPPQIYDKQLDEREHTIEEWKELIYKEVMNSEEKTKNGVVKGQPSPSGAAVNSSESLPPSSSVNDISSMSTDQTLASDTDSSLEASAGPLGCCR", "experiment": "SelectScreen kinase panel", "type": "binding", "method": "as §1, §2"}, "TAK1-TAB1": {"target": "T9, TAK1-TAB1 (Homo sapiens, UniProt O43318)", "T9 construct": "purchased Invitrogen / ThermoFisher SelectScreen", "T9 sequence (O43318 with tags, fused parts or gaps limits assumed)": "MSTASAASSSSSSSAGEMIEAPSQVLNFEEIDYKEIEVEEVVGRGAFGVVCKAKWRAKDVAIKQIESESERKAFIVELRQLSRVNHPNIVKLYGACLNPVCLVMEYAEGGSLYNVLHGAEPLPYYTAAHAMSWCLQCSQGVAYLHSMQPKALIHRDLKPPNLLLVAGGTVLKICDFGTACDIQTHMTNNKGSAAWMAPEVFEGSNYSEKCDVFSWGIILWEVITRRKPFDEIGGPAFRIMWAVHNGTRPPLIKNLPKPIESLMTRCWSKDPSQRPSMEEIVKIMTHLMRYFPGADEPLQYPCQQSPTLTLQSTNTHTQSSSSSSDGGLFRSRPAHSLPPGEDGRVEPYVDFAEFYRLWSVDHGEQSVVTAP", "experiment": "SelectScreen kinase panel", "type": "binding", "method": "as §1, §2"}, "JNK2": {"target": "T10, JNK2 (Homo sapiens, UniProt P45984)", "T10 construct": "purchased Invitrogen / ThermoFisher SelectScreen", "T10 sequence (P45984 whole entry)": "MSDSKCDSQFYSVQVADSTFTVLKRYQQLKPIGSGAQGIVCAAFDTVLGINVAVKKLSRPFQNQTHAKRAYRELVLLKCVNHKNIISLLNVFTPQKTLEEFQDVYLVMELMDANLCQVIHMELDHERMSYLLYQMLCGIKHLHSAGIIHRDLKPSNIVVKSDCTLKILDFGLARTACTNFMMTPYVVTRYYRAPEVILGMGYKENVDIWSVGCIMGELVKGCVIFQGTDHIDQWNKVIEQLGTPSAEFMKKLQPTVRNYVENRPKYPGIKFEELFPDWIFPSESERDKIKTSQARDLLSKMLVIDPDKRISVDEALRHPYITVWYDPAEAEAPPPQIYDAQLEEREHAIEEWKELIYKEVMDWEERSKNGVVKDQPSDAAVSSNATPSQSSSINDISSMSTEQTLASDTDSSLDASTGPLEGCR", "experiment": "SelectScreen kinase panel", "type": "binding", "method": "as §1, §2"}, "STK16": {"target": "T11, STK16 (Homo sapiens, UniProt O75716)", "T11 construct": "purchased Invitrogen / ThermoFisher SelectScreen", "T11 sequence (O75716 whole entry)": "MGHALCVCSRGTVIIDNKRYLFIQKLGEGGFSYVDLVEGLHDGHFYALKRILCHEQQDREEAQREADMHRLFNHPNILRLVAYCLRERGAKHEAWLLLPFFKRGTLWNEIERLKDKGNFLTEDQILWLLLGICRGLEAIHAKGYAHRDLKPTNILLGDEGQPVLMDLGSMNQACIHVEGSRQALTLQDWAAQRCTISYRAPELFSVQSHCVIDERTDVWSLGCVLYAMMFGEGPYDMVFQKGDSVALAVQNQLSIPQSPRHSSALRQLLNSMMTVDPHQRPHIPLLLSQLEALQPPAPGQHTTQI", "experiment": "SelectScreen kinase panel", "type": "binding", "method": "as §1, §2"}, "RIPK2": {"target": "T12, RIPK2 (Homo sapiens, UniProt O43353)", "T12 construct": "purchased Invitrogen / ThermoFisher SelectScreen", "T12 sequence (O43353 whole entry)": "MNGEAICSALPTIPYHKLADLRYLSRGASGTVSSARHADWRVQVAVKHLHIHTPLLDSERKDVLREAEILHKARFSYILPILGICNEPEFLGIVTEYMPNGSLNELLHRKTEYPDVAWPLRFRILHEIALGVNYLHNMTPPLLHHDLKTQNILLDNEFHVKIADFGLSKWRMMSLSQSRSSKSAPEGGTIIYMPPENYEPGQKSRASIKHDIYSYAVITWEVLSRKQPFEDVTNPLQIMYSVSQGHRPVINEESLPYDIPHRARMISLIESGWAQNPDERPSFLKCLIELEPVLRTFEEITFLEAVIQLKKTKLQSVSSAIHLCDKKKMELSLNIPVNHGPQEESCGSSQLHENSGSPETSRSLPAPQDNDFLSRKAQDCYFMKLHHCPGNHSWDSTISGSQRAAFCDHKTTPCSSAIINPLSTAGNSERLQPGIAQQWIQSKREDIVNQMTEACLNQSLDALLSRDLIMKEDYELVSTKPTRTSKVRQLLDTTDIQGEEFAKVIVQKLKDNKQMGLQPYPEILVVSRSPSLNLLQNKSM", "experiment": "SelectScreen kinase panel", "type": "binding", "method": "as §1, §2"}, "DRAK1": {"target": "T13, DRAK1 (Homo sapiens, UniProt Q9UEE5)", "T13 construct": "purchased Invitrogen / ThermoFisher SelectScreen", "T13 sequence (Q9UEE5 whole entry)": "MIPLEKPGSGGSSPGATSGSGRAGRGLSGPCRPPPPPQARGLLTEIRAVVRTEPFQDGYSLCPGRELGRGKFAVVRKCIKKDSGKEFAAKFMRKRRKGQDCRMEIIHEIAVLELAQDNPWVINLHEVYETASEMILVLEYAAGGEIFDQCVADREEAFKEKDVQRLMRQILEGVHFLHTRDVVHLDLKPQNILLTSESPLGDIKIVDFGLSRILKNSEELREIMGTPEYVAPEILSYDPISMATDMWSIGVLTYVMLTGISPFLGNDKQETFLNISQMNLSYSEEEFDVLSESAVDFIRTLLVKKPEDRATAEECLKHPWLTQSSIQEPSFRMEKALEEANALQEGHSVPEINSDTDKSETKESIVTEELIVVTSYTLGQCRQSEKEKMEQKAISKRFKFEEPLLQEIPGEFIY", "experiment": "SelectScreen kinase panel", "type": "binding", "method": "as §1, §2"}, "[2]": {"experiment": "In vivo studies in mice: PK, target coverage, tolerability", "set-up": "species or system mouse"}, "[3]": {"system": "nuclear RelA (canonical NF-κB signaling)", "experiment": "High content nuclear RelA imaging, TNF-stimulated HeLa cells", "type": "cell-based, human", "method": "The HeLa cell line was used to define the cellular selectivity of NIK inhibitors toward inhibition of classical vs. non-classical NF-κB signaling using high content cellular imaging assays. For the nuclear translocation assay p52 (non-canonical NF-κB signaling), HeLa cells were treated with different concentrations of compounds previously diluted in DMSO (final [DMSO] = 0.2% in all wells) in DMEM medium (10% FBS, 2 mM Glutamine) and then stimulated with 300 ng/mL of an anti-lymphotoxin beta receptor antibody for 4.5 h. In the REL-A nuclear translocation assay, HeLa cells were incubated with compounds for 4 h 50 min before stimulating them with 2 ng/mL TNF (R&D Systems) for 10 min. Cells were fixed with 4% paraformaldehyde, permeabilized by adding 0.1% Triton X-100 in phosphate buffered saline, and then are incubated with either 2 μg/mL anti-p52 antibody or 400 ng/mL anti-REL-A (p65) antibody. Finally, the cells are incubated with an Alexa488-labeled secondary antibody (Invitrogen) and DRAQ5 DNA stain (Biostatus). Imaging was carried out using an Opera reader (Perkin Elmer) and data were analyzed with Acapella software (Perkin Elmer). The p52 or REL-A translocation into the nucleus is quantified by the ratio of the nuclear to cytoplasmic signal intensity."}, "human B cells": {"system": "human B cells", "experiment": "Human B cell rhCD40L proliferation assay", "type": "cell-based", "conditions": "Homo sapiens, B-cell; thymidine incorporation, day four; read-out: Human B cell anti-CD40 proliferation IC50"}},
  "data": [
    {"smiles": "COc1cc(C(N)=O)nc(-c2cccc(C#C[C@]3(O)CCN(C)C3=O)c2)c1", "note": "[NIK SMI1]", "values": [
      {"measurement": "BAFF-induced and CD40-induced p52 processing", "setting": "[1]", "result": "significantly inhibited"},
      {"measurement": "inhibition at 1 µM", "setting": "CAMKK2", "result": 1.1, "unit": "%"},
      {"measurement": "inhibition at 1 µM", "setting": "ALK2", "result": 5.8, "unit": "%"},
      {"measurement": "inhibition at 1 µM", "setting": "ASK1", "result": 3.8, "unit": "%"},
      {"measurement": "inhibition at 1 µM", "setting": "MKK6", "result": 13.2, "unit": "%"},
      {"measurement": "inhibition at 1 µM", "setting": "LIMK1", "result": 16.8, "unit": "%"},
      {"measurement": "inhibition at 1 µM", "setting": "EphA3", "result": -5.2, "unit": "%"},
      {"measurement": "inhibition at 1 µM", "setting": "WEE1", "result": 6.2, "unit": "%"},
      {"measurement": "inhibition at 1 µM", "setting": "JNK3", "result": 4.6, "unit": "%"},
      {"measurement": "inhibition at 1 µM", "setting": "TAK1-TAB1", "result": 31.1, "unit": "%"},
      {"measurement": "inhibition at 1 µM", "setting": "JNK2", "result": 3, "unit": "%"},
      {"measurement": "inhibition at 1 µM", "setting": "STK16", "result": 1, "unit": "%"},
      {"measurement": "inhibition at 1 µM", "setting": "RIPK2", "result": -0.1, "unit": "%"},
      {"measurement": "inhibition at 1 µM", "setting": "DRAK1", "result": 3.4, "unit": "%"},
      {"measurement": "adverse effect not explained by on-target pharmacology", "setting": "[2]; 180 mg/kg, no formal toxicity assessment", "result": "never observed any adverse effect"},
      {"measurement": "coverage of NIK activity in vivo", "setting": "[2]; doses used in vivo", "result": "70–90%"},
      {"measurement": "PK properties", "setting": "[2]; mouse, in vivo", "result": "excellent"},
      {"measurement": "effect on canonical signaling as measured by TNF alpha-induced nuclear relA levels", "setting": "[3]", "result": "no effect"},
      {"measurement": "IC50", "setting": "[3]; Homo sapiens, TNF induced", "result": "> 2", "unit": "µM"},
      {"measurement": "IC50", "setting": "human B cells", "result": "> 10", "unit": "µM"}
    ]}
  ]
}
